For eight compounds, IC50 results are on record in US9561230B2, “Aryl-substituted tricyclic sulfonamides as methionyl aminopeptidase 2 modulators” (Zafgen, Inc., priority 2011, dated 2017).

As usually defined, the IC50 is the concentration that gives 50% inhibition.

The target in this assay is T1, recombinant human MetAP2 (Homo sapiens, UniProt P50579).
T1 construct: made in house; host or cells: Sf9 insect cells
T1 sequence (P50579 whole entry): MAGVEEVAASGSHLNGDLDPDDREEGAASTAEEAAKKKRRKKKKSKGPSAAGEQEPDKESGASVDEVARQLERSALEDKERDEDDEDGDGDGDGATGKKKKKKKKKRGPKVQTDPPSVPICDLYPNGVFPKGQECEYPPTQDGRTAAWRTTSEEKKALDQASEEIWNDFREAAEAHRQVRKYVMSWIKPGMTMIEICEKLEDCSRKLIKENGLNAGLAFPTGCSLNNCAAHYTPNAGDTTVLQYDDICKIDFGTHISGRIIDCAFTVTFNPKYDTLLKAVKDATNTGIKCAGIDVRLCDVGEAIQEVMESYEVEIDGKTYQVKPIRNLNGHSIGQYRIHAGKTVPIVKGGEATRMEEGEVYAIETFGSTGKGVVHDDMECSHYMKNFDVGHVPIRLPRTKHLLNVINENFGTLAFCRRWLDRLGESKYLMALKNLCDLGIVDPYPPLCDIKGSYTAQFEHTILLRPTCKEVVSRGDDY
Put plainly: Inhibition of recombinant human MetAP2 activity (MAS substrate, amino acid oxidase/Amplex red fluorescence). It is filed as biochemical. To be noted: manganese enzyme, 0.75 mM MAS substrate, 30 minutes at 25° C., pH 7.5, 1% DMSO; read-out: Activity (IC50 class, MetAP2 inhibition). The protocol:
Compounds are tested for their capacity to inhibit recombinant human MetAP2 activity using the following assay.
Human recombinant MetAP2 expressed in Sf9 cells followed by affinity purification and EDTA treatment to remove endogenous active site cation was dialysed against MnCl2 to produce the manganese enzyme used in the assay. The assay was carried out for 30 minutes at 25° C. in 50 mM HEPES buffer containing 100 mM NaCl, pH 7.5 the presence of 0.75 mM Methionine-Alanine-Serine (MAS) substrate and 50 μg/ml amino acid oxidase using a dilution of purified MetAP2 giving>3-fold signal:noise. Cleavage of the substrate by MetAP2 and oxidation of free methionine by amino acid oxidase was detected and quantified using fluorescence generated by Amplex red (10-acetyl-3,7-dihydroxyphenoxazine) in combination with horseradish peroxidase which detects H2O2 released during the oxidation step. The fluorescent signal was detected using a multiwell fluorimeter. Compounds were diluted in DMSO prior to addition to assay buffer, the final DMSO concentration in the assay being 1%.
The IC50 is defined as the concentration at which a given compound achieves 50% inhibition of control. IC50 values are calculated using the XLfit software package (version 2.0.5).
On to `CCN(CC)C/C=C\c1cc(F)ccc1S(=O)(=O)Nc1ccc2c(c1C(=O)O)OC[C@H]1CCN21` [(R)-6-[2-((Z)-3-Diethylaminoprop-1-enyl)-4-fluorobenzenesulfonylamino]-1,2,2a,3-tetrahydro-4-oxa-8b-azacyclobuta[a]naphthalene-5-carboxylic acid], for which the IC50 is > 500 nM.

Turning to `CCN(CC)C/C=C\c1cc(F)ccc1S(=O)(=O)Nc1ccc2c(c1C(=O)O)CC1CCCN21` (centres unmarked) [7-[2-((Z)-3-Diethylaminoprop-1-enyl)-4-fluorobenzenesulfonylamino]-2,3,9,9a-tetrahydro-1H-pyrrolo[1,2-a]indole-8-carboxylic acid], the IC50 fell in the range of 50 to 500 nM.

Take `CCN(CC)C/C=C\c1cc(F)ccc1S(=O)(=O)Nc1ccc2c(cc3n2CCC3)c1C(=O)O` [7-[2-((Z)-3-Diethylaminoprop-1-enyl)-4-fluorobenzenesulfonylamino]-2,3-dihydro-1H-pyrrolo[1,2-a]indole-8-carboxylic acid]: the 50% inhibitory concentration (IC50) is < 50 nM.

`O=C(O)c1c(NS(=O)(=O)c2ccccc2)ccc2c1cc1n2CCC1` [7-Benzenesulfonylamino-2,3-dihydro-1H-pyrrolo[1,2-a]indole-8-carboxylic acid]: the IC50 is > 500 nM.

In the case of `CCN(CC)C/C=C\c1cc(F)ccc1S(=O)(=O)Nc1ccc2c(nc3n2CCC3)c1C(=O)O` [6-[2-((Z)-3-Diethylaminoprop-1-enyl)-4-fluorobenzenesulfonylamino]-2,3-dihydro-1H-benzo[d]pyrrolo[1,2-a]imidazole-5-carboxylic acid], the IC50 was > 500 nM.

Take `CCN(CC)C/C=C\c1cc(F)ccc1S(=O)(=O)Nc1ccc2c(c1C(=O)O)OC[C@@H]1CCCN21` [(S)-7-[2-((Z)-3-Diethylaminoprop-1-enyl)-4-fluorobenzenesulfonyl-amino]-2,3,3a,4-tetrahydro-1H-benzo[b]pyrrolo[1,2-d][1,4]oxazine-6-carboxylic acid]: the IC50 is 50 to 500 nM.

Regarding `CCN(CC)C/C=C\c1cc(F)ccc1S(=O)(=O)Nc1ccc2c(c1C(=O)O)OC[C@H]1CCCN21` [(R)-7-[2-((Z)-3-Diethylaminoprop-1-enyl)-4-fluorobenzenesulfonyl-amino]-2,3,3a,4-tetrahydro-1H-benzo[b]pyrrolo[1,2-d][1,4]oxazine-6-carboxylic acid], the IC50 was in the range of 50 to 500 nM.

With `CCN(CC)C/C=C\c1cc(F)ccc1S(=O)(=O)Nc1ccc2c(c1C(=O)O)CCC1CCCN21` (centres unmarked) [7-[2-((Z)-3-Diethylaminoprop-1-enyl)-4-fluorobenzenesulfonylamino]-1,2,3,3a,4,5-hexahydropyrrolo[1,2-a]quinoline-6-carboxylic acid], the IC50 lay in the range of 50 to 500 nM.
